Data on one molecule can be found in publication PMC1890308, “Anti-calmodulins and Tricyclic Adjuvants in Pain Therapy Block the TRPV1 Channel” (PLoS ONE, 2007).

In one assay the test system is heat-induced tail-flick. Further details: method as in PMID 8883861. As to conditions: cited from earlier work.
The next assay concerns kainic acid receptors. The assay is described as follows: kainic acid-evoked responses of spinal dorsal horn neurons, microiontophoresis. Type of assay: in vivo. Particulars: anesthetized rat, iontophoresis, mean±SD, n = 16. The method, then: (§1) In another set of experiments, effects of calmidazolium were investigated on the responses of dorsal horn neurons evoked by NMDA and kainic acid agonists of different glutamate receptors, well characterized transducers of pain signals, more centrally. Neuronal firing responses to iontophoresed NMDA or kainic acid were typically fast in onset and short in duration (Fig. 8). Ejection currents for these excitatory agents were delivered alternately in every 2 min and were selected to produce a maximal peak height of 50–70 spikes/s which corresponded to 300–400 action potentials per stimulation epoch. Iontophoretic application of calmidazolium produced significant reduction in responses to both NMDA and kainic acid. Maximal inhibition of NMDA- or kainic acid -evoked responses were reached 15–20 min after calmidazolium application and remained so during the rest of the 2 hour long experiment. […]
(§2) Extracellular single-neuron recordings were made in chloral hydrate-anesthetized ([…] initial dose, i.p., with supplemental doses as required) male Wistar rats weighing between 350–450 g. […] Rectal temperature as well as the temperature of the mineral oil were monitored with temperature probes and kept at 37°C by a warm water-heated blanket beneath the rat and an infrared heat lamp from above. […]

The test system of the next assay is NMDA receptors. Briefly: NMDA-evoked responses of spinal dorsal horn neurons, microiontophoresis. Type of assay: in vivo. As to conditions: anesthetized rat, iontophoresis, mean±SD, n = 16. The method, then: as §1, §2
In a further assay the target is TRPV1 (Rattus norvegicus, UniProt O35433). The assay is described as follows: capsaicin-induced Ca2+-uptake in human TRPV1-HaCaT keratinocyte line. It counts as cell-based. The arrangement: expressed in transfected cells. Particulars: data not shown. Here is the method:
Assays were carried out in 2×10^−5 M extracellular Ca^2+ in 96 well plate formats at room temperature (22°C) for 10 min with robotic liquid handling. […] We hypothesized that calmodulin antagonists and some registered drugs may exert their blocking effect with another mechanisms on TRPV1 and not necessarily on their conventional target.
TRPV1-NIH3T3 mouse fibroblast line, ectopically expressing the rat TRPV1 was established previously.
Vanilloid agonist inducible calcium transport was assayed in adherent cell lines ectopically expressing the C-terminally ε-tagged rat TRPV1 (3×10^4 cells/well) and primary cultures prepared from embryonic DRG, seeded in poly-D lysine/collagen coated 96 well plates. […] The previously established cell lines and standardized DRG cultures were extensively characterized for functional cell-based TRPV1 studies [1]–[4]. Immediately before the transport assay, cells were adapted to room temperature (20°C) for 5 min in HCM. ^45Ca^2+-uptake was performed for 10 min at 20°C in HCM using 0.1 µCi ^45Ca^2+ as radioactive tracer in a 100 µl final volume. […] Aliquots of the solubilized cell extracts were mixed with 120 µl Microscint-40 and counted in a 96 well plate liquid scintillation counter (TopCount-NXT, Packard).

Assay [1] deals with intermediate Ca2+-activated K+ channels (IKCa). Particulars: human erythrocytes; cited from earlier work.

TRPV1, sequence (O35433 whole entry): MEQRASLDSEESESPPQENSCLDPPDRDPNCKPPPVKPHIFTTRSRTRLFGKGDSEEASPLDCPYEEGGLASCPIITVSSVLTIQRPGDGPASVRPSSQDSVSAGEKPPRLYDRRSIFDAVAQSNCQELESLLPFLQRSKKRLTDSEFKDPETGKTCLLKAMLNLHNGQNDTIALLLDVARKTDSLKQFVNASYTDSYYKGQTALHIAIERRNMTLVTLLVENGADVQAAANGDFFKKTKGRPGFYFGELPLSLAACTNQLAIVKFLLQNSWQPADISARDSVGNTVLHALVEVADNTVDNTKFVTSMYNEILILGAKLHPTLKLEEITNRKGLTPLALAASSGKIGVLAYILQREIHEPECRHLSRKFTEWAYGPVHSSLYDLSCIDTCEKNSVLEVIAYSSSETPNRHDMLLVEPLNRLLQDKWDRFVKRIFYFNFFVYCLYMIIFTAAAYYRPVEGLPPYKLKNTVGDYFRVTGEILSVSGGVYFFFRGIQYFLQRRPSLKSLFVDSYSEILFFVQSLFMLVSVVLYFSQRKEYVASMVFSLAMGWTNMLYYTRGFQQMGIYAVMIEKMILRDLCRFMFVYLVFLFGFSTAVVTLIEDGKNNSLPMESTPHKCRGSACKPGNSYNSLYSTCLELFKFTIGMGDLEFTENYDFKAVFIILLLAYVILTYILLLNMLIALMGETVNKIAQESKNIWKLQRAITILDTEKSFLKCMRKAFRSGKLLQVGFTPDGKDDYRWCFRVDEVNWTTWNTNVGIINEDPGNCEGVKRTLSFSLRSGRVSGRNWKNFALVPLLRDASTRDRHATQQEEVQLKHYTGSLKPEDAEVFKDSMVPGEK

Regarding `Clc1ccc(C(c2ccc(Cl)cc2)n2cc[n+](CC(OCc3ccc(Cl)cc3Cl)c3ccc(Cl)cc3Cl)c2)cc1` (centres unmarked) [calmidazolium], in the assay with heat-induced tail-flick, the “effect on heat-induced tail-flick latency” value is reported as “inhibit”. For the same molecule, the “responses to kainic acid, % of pre-calmidazolium baseline control” value in the assay with kainic acid receptors amounted to 47±20%. Besides, the “responses to NMDA, % of pre-calmidazolium baseline control” value in the assay on NMDA receptors was found to be 13±12%. The “efficacy on TRPV1 (in words)” value on TRPV1 is “µM scale”. In addition, the “activity on IKCa channels (in words)” value in assay [1] is “inactive”.
